Results reported in patent US12171797B2, “Composition for ameliorating premenstrual syndrome symptoms, including chrysanthemum zawadskii extract” (GENENCELL INC., priority 2019, dated 2024).

Tested on: hyperprolactinemia-induced female rats
Test: Hyperprolactinemia-induced (metoclopramide) animal model of premenstrual syndrome, serum prolactin and progesterone by ELISA
Format: in vivo
Details: 50 mg/kg metoclopramide to the abdominal cavity for 5 days
Method: Metoclopramide is used as an antiemetic drug, and increases the secretion of prolactin by inhibiting dopamine secretion, and accordingly, it is known as a drug that inhibits the secretion of progesterone, luteinizing hormone, and follicle-stimulating hormone (Wang et al., 2014). Therefore, in the present invention, 50 mg/kg of metoclopramide was administered to the abdominal cavity of female rats for 5 days, after which hyperprolactinemia was induced to establish an animal model of premenstrual syndrome caused by hormone secretion disorder. Rats (females) were obtained from Raonbio, and were acclimatized for 1 week while general solid feed and water were freely supplied thereto. The environmental conditions of the animal room were set to a temperature of 23±3° C., a relative humidity of 50±10%, a lighting time of 12 hours (8 am to 8 pm), a ventilation frequency of 10 to 20 times/hour, and an illumination intensity of 150 to 300 Lux. During the experiment, the temperature and humidity of the animal room were automatically controlled using a thermo-hygrostat. […] After termination of the experiment, blood was collected, serum was isolated therefrom, and the amounts of secreted prolactin and progesterone in the serum were measured using an ELISA kit. […]

SMILES: CCN(CC)CCNC(=O)c1cc(Cl)c(N)cc1OC [metoclopramide, Metoclopramide]
- Prolactin levels in the serum after model induction (FIG. 1): increased
- Progesterone levels in the serum after model induction (fraction of normal) (FIG. 2): about ⅕
